The values that follow come from publication PMC7504770, “Mechanistic Insights into the Chaperoning of Human Lysosomal-Galactosidase Activity: Highly Functionalized Aminocyclopentanes and C-5a-Substituted Derivatives of 4-epi-Isofagomine” (Molecules, 2020).

pKi: −log10 of the molar value. Entries after “also recorded” stand apart in the source; their conditions may differ.

Assay [1] addresses T1, β-glucosidase/β-galactosidase from Agrobacterium sp. (Abg, GH1) (Agrobacterium sp., UniProt P12614).
T1 sequence (P12614 1-459): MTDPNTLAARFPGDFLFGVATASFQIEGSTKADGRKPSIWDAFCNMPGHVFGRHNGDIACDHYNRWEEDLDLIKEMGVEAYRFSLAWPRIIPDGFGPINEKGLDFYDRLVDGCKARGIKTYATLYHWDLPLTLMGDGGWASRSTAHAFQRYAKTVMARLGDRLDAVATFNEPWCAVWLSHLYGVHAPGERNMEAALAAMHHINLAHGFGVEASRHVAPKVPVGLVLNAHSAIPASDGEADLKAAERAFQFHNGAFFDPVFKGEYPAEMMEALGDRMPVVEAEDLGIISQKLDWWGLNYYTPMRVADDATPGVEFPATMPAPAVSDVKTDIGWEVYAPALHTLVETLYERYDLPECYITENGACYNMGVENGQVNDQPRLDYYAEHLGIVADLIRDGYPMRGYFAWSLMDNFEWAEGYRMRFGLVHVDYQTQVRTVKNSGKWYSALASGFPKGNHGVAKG
Description: Ki determination, Agrobacterium sp. β-glucosidase/β-galactosidase (Abg). Type of assay: biochemical. The conditions noted are these: for pKi: 37 °C, pH 7, substrate pNP β-Gal, read-out: Ki Abg (β-Glc/Gal) (GH1). On the procedure:
Kinetic studies were performed at 37 °C in an appropriate buffer (specific conditions depicted below). In a typical assay, the enzyme was incubated with different inhibitor concentrations for up to 5 min before initiating the reaction by the addition of substrate. The initial reaction rate was measured by monitoring the increase in absorbance at 400 nm for up to ten minutes using a Cary4000 (Varian, Palo Alto, CA, USA). Ki determinations were performed using at least two different substrate concentrations. For each inhibitor, a range of four to six inhibitor concentrations bracketing the ultimately determined Ki value was used for each substrate concentration. Dixon plots (1/v vs. [I]) were constructed to validate the use of competitive inhibition model. The data were then fit using non-linear regression analysis with Grafit 7.0 [Erithacus Software, UK].
n.i. stands for no inhibition or weak inhibition with an estimated Ki value higher than 1 mM.
Agrobacterium sp. β-glucosidase: [69, 70] 50 mM sodium phosphate buffer (pH 7).

In assay [2] the target is T2, R201C mutant lysosomal β-galactosidase (Homo sapiens, UniProt P16278, R201C).
T2 construct: Cell lines from one GM1-Gangliosidosis-patient (R201C) and one WT; endogenous in cells; host or cells: human skin fibroblasts of a GM1-gangliosidosis patient (R201C)
T2 sequence (P16278 29-677 R201C): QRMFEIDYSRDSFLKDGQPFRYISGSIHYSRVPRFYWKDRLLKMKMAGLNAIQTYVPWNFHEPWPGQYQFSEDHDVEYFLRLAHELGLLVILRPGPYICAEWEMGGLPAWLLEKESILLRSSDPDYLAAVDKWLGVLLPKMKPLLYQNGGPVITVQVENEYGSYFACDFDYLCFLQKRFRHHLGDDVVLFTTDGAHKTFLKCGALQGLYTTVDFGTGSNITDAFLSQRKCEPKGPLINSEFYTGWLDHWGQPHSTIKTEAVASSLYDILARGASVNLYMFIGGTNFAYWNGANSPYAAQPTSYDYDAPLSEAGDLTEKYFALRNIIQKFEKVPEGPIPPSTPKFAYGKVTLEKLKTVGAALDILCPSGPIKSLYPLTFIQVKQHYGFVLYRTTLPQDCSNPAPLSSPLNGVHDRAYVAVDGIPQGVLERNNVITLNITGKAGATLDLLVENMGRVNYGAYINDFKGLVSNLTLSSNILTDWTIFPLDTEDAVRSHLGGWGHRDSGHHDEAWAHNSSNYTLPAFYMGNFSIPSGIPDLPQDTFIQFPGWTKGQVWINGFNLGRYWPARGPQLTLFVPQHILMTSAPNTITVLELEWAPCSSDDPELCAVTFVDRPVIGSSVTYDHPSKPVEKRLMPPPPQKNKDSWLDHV
Description: Chaperoning activity in R201C patient fibroblasts. The conditions noted are these: for chaperoning activity with R201C mutant β-galactosidase: R201C cells (juvenile GM1-gangliosidosis), Figure 7; for β-galactosidase activity at higher concentrations: concentrations higher than 10 µM; for β-galactosidase activity at more than 100 µM: concentrations of more than 100 µM; for influence on β-galactosidase activity: incubation of the cells up to 10 µM. Type of assay: cell-based. As to the method: Human β-galactosidase and β-hexosaminidase activity measurements were performed in duplicate assays, unless otherwise stated. Fibroblast cells were harvested by trypsinization in 0.9% NaCl containing 0.01% Triton, homogenized by sonication (3 × 10 s, Sonifier Bandelin Sonopuls, Bandelin, Berlin, Germany) and centrifuged at 13,000 rpm for 2 min in a table top centrifuge (Biofuge Pico, Heraeus, Hanau, Germany). Protein amounts were determined according to the method of Lowry.
For assessment of β-Gal activity, 20 µL of cell homogenate were mixed with 100 µL of 0.5 mM 4-methylumbelliferyl-β-D-galactopyranoside (Sigma-Aldrich, St. Louis, MO, USA), in 100 mM citrate buffer (pH 4.0) containing 100 mM NaCl and 0.02% NaN3. After incubation at 37 °C for 30 min, the reaction was stopped by adding 2.5 mL 400 mM glycine/NaOH (pH 10.4).
Cell lines from one GM1-Gangliosidosis-patient (R201C) and one WT, were exposed to compounds 22, 31, and 37, for evaluation of their chaperone effects.
Human skin fibroblasts were grown in minimal essential medium (MEM) with Earle’s Salts (Sigma Aldrich, St. Louis, MO, USA) containing 10% fetal bovine serum, 400 µM L-glutamine, and 50 µg/mL gentamycin at 37 °C and 5% CO2. All cells used in this study were between the third and nineteenth passages.
Potential chaperones were dissolved in DMSO and diluted in 10 mM phosphate buffer (pH 7.0) containing 100 mM NaCl, 0.01% NaN3, and 0.01% Triton for the IC50-measurements and in MEM for the in-vivo tests. The total DMSO concentration in the media was less than 1% and had no effect on β-Gal activity or cell viability.
Fibroblasts were grown to semi-confluency in 6-well plates. Particular chaperone was added to the culture medium at following concentrations: 100–0.02 µmol. Cells were incubated for four additional days at 37 °C. Cells were harvested by scraping and prepared for β-galactosidase and β-hexosaminidase assays as described above.

With `CN(C)c1cccc2c(S(=O)(=O)NCCCCCC[C@H]3NC[C@@H](O)[C@@H](O)[C@H]3CO)cccc12` [Compound 22], in assay [1], the pKi is 9.52. Further, the “chaperoning activity with R201C mutant β-galactosidase” value (“chaperoning activity” for short) in assay [2] is given as “reacted very positively; also recorded: encouraging dose-dependent chaperoning profiles”.
For `CN(C)c1cccc2c(S(=O)(=O)NCCCCCCN[C@H]3[C@H](F)[C@@H](O)[C@@H](O)[C@H]3CO)cccc12` [Compound 37, (1S,2S,3S,4R,5R)-4-(6′-Dansylaminohexyl)amino-3-fluoro-5-hydroxymethylcyclopentane-1,2-diol], in assay [1], the pKi was 7.11. Moreover, the “fold weaker binding than 17, GH1 bacterial glycosidase” value in assay [1] (compared to inhibitor 17) was 64 fold. Also, in assay [2], the “chaperoning activity” value is on record as “only trailed by deoxyfluoro analog 37”, the “β-galactosidase activity at higher concentrations” value is “decreased enzyme activity”, the “β-galactosidase activity at more than 100 µM” value was “dramatic loss” and the “influence on β-galactosidase activity” value is “no notable influence”.
Turning to `CN(C)c1cccc2c(S(=O)(=O)NCCCCCCN[C@H]3[C@H](O)[C@@H](O)[C@@H](O)[C@H]3CO)cccc12` [Compound 17], the “chaperoning activity” value in assay [2] is given as “reacted very positively”.
Turning to `CCCCCCCCN[C@H]1[C@H](O)[C@@H](O)[C@@H](O)[C@H]1CO` [Compound 16], the pKi in assay [1] is 9.00. In addition, the “chaperoning activity” value in assay [2] was “reacted very positively”.
As to `CCCCCCCCNC1C=C(CO)C(O)C(O)C1O` (stereo not drawn) [Compound 1, N-octyl-epi-valienamine], the pKi in assay [1] is 5.11.
With `CN(C)c1cccc2c(S(=O)(=O)NCCCCCC[C@@H]3NC[C@@H](O)[C@@H](O)[C@H]3CO)cccc12` [Compound 14], the “chaperoning activity” value in assay [2] is “reacted very positively”.
As to `CN(C)c1cccc2c(S(=O)(=O)NCCCCCCN[C@H]3C[C@@H](O)[C@@H](O)[C@H]3CO)cccc12` [Compound 31, (1R,2S,3R,4S)-3-Hydroxymethyl-4-(6′-dansylaminohexylamino)cyclopentane-1,2-diol], in assay [1], the pKi was 8.46. Also, in assay [2], the “chaperoning activity” value is reported as “distinctly reduced chaperoning activity”, the “β-galactosidase activity at higher concentrations” value is “decreased enzyme activity”, the “β-galactosidase activity at more than 100 µM” value was “dramatic loss” and the “influence on β-galactosidase activity” value is recorded as “no notable influence”.
With `CN(C)c1cccc2c(S(=O)(=O)NCCCCC3NCC(O)C(O)C3CO)cccc12` (stereo not shown) [Compound 11], in assay [2], the “chaperoning activity” value is “reacted very positively”.
